The results in this text go back to patent publication US20230357269A1 (LES LABORATOIRES SERVIER, priority 2020, published 2023).

human recombinant LRRK2 protein, sequence (Q5S007 whole entry): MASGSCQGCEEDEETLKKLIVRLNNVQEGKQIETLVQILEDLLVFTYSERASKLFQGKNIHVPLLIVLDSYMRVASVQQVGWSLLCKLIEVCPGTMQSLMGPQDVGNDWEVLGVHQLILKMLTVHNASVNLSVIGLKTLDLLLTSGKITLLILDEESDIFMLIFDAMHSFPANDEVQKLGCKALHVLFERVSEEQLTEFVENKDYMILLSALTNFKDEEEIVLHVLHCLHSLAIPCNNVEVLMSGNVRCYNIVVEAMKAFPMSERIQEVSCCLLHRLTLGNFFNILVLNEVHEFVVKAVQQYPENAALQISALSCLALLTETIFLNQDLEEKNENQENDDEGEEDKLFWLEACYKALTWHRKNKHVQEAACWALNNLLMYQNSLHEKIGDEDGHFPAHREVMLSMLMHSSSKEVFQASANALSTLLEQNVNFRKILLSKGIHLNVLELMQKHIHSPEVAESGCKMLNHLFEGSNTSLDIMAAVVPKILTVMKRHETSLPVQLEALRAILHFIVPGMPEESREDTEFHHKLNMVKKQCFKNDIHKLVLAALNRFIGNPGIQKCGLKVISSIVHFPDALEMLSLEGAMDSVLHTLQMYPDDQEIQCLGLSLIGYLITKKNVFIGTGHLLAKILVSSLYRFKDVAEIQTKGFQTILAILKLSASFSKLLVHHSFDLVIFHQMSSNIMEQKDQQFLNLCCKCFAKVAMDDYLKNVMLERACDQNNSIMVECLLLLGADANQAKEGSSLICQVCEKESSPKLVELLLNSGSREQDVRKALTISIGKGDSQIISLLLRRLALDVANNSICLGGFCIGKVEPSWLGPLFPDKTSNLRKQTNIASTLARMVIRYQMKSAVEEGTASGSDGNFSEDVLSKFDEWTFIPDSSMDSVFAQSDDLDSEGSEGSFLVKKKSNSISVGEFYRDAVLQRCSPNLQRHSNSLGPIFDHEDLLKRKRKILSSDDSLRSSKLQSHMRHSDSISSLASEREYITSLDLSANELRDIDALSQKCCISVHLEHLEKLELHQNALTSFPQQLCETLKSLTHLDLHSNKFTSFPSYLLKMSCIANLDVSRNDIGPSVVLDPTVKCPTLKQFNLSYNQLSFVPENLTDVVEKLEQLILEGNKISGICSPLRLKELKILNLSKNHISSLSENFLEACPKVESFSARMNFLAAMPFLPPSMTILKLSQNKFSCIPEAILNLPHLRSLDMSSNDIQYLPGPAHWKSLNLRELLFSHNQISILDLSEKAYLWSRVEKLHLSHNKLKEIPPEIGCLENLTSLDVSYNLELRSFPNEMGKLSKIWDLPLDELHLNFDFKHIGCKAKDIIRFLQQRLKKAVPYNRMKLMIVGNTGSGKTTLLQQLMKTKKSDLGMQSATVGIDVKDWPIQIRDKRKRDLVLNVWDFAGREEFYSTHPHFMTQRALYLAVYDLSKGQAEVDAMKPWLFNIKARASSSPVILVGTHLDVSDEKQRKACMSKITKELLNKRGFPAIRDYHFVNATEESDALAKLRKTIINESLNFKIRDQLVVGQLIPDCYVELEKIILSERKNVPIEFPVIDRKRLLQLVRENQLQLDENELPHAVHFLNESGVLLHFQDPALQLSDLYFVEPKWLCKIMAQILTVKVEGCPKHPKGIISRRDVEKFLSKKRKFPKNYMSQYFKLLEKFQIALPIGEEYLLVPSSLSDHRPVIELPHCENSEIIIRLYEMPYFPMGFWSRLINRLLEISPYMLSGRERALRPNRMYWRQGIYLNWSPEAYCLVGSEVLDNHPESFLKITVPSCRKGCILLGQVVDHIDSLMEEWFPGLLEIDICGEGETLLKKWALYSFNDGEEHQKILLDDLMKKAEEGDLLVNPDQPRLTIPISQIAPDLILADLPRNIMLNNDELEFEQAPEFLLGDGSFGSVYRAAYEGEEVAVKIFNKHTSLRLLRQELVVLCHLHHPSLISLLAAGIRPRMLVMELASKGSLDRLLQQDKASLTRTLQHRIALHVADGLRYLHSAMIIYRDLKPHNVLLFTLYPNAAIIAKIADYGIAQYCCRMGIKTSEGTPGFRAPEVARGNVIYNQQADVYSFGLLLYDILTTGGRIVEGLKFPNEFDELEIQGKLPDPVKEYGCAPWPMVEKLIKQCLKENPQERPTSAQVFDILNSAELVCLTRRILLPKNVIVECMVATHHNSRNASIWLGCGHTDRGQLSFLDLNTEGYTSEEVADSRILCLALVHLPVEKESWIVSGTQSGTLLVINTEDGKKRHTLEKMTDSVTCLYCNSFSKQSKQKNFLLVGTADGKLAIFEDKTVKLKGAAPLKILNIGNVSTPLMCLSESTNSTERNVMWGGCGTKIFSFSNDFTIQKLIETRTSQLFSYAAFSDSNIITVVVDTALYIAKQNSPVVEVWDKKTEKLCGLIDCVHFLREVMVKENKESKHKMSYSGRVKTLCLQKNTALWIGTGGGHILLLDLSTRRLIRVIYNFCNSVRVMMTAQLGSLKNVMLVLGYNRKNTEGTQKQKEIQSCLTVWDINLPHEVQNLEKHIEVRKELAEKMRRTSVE

The experiment deals with human recombinant LRRK2 protein (Homo sapiens (Human), UniProt Q5S007). Briefly: LRRK2 Kinase Activity Assay (ADP-Glo). The class given is biochemical. As to conditions: LRRK2 wt; LRRKtide peptide and ATP substrates; 1h-incubation at 37° C. As to the method:
LRRK2 Kinase reactions were carried out in 384-well white polystyrene plates in a final volume of 6 μl using ADP-Glo™ Kinase Assay kit (Promega Corp.). Compound and substrates (LRRKtide peptide and ATP) in assay buffer were first dispensed in wells. Kinase reaction was then started by the addition of human recombinant LRRK2 protein. After 1h-incubation at 37° C., the enzymatic reaction was stopped by the addition of 6 μl of ADP-Glo Reagent-1 and an additional 40-minutes incubation at 23° C. (residual ATP depletion). A final 30-minutes incubation after 12 μL reagent-2 addition (ADP to ATP conversion and luciferin/luciferase reaction) was performed before luminescent signal acquisition (EnVision™ multimode plate reader-PerkinElmer, Inc.). Data from 10 individual concentrations of tested compounds (N=2) were fitted (XLfit™-ID Business Solutions Ltd) to deliver IC50s (compound concentration leading to 50% inhibition of reference enzymatic activity).
The compounds are dissolved to 5 mM in DMSO. When needed, solutions are sonicated in a bath sonicator.
Table 2 provides the IC50 values of the compounds according to the invention, obtained using the above-mentioned kinase assay. Activities are represented as +++, ++ and +, having the following meanings: • +++ means IC50<10 nM • ++ means 10 nM≤IC50<100 nM • + means 100 nM≤IC50<1 μM.
A general note: ADP-Glo turns the ADP formed in a reaction into a luminescent signal.
Consider `C[C@@H]1CN(c2cc3cc(c2)-c2n[nH]c4ccc(cc24)OCCCNC(=O)OC3)C[C@H](C)O1` [Example 17, 4-[(2R,6S)-2,6-dimethylmorpholin-4-yl]-8,14-dioxa-10,19,20-triazatetra cyclo[13.5.2.1^2,6.0^18,21]tricosa-1(20),2,4,6(23),15,17,21-heptaen-9-one], for which the IC50 (in general, the concentration needed to halve the response being measured) was less than 10 nM.
As to `C[C@@H]1CCNC(=O)OCc2cncc(c2)-c2n[nH]c3ccc(nc23)O1` [Example 164, (13R)-13-methyl-8,14-dioxa-4,10,19,20,22-pentaazatetracyclo[13.5.2. 1^2,6.0^18,21]tricosa-1(20),2(23),3,5,15,17,21-heptaen-9-one], the IC50 is less than 10 nM.
Consider `C[C@@H]1CCNC(=O)OCc2cccc(c2)-c2n[nH]c3ccc(nc23)O1` [Example 157, (13R)-13-methyl-8,14-dioxa-10,19,20,22-tetraazatetracyclo[13.5.2. 1^2,6.0^18,21]tricosa-1(20),2(23),3,5,15,17,21-heptaen-9-one], for which the IC50 is less than 10 nM.
For `C[C@@H]1CCNC(=O)OCc2cc(c[nH]c2=O)-c2n[nH]c3ccc(cc23)O1` [Example 144, (13R)-13-methyl-8,14-dioxa-4,10,19,20-tetraazatetracyclo[13.5.2.1^2,6.0^18,21]tricosa-1(20),2,6(23),15,17,21-hexaene-5,9-dione], the IC50 was less than 10 nM.
`CCC1CC2=NN1CCOC(=O)NCCCOc1ccc3[nH]nc2c3c1` (stereo not shown) [Example 119, 4-ethyl-8,14-dioxa-5,10,19,20,23-pentaazatetracyclo[13.5.2.1^2,5.0^18,21]tricosa-1(20),2(23),15,17,21-pentaen-9-one]: the IC50 fell in the range of 10 to 100 nM.
Regarding `O=C1NCCCOc2ccc3[nH]nc(c3c2)-c2cnn(n2)CCO1` [Example 166, 8,14-dioxa-4,5,10,19,20,23-hexaazatetracyclo[13.5.2.1^2,5.0^18,21]tricosa-1(20),2(23),3,15(22),16,18(21)-hexaen-9-one], the IC50 was less than 10 nM.
In the case of `COC1CN(c2cc3cc(c2)-c2n[nH]c4ccc(cc24)OCCCNC(=O)OC3)C1` [Example 32, 4-(3-methoxyazetidin-1-yl)-8,14-dioxa-10,19,20-triazatetracyclo[13.5.2.1^2,6.0^18,21]tricosa-1(20),2,4,6(23),15,17,21-heptaen-9-one], the IC50 is less than 10 nM.
As for `C[C@H]1OC(=O)NCCCOc2ccc3[nH]nc(c3c2)-c2cc(F)cc1c2` (single isomer, unassigned) [Example 108, (7R)- or (7S)-4-fluoro-7-methyl-8,14-dioxa-10,19,20-triazatetracyclo[13.5.2.1^2,6.0^18,21]tricosa-1(20),2,4,6(23),15,17,21-heptaen-9-one], the IC50 was in the range of 10 to 100 nM.
In the case of `O=C1NCCCOc2ccc3[nH]nc(c3c2)-c2ccc(F)c(c2)CO1` [Example 10, 5-fluoro-8,14-dioxa-10,19,20-triazatetracyclo[13.5.2.1^2,6.0^18,21]tricosa-1(20), 2,4,6(23),15,17,21-heptaen-9-one], the IC50 is less than 10 nM.
As for `COCCc1cc2cc(c1)-c1n[nH]c3ccc(cc13)OCCCNC(=O)OC2` [Example 67, 4-(2-methoxyethyl)-8,14-dioxa-10,19,20-triazatetracyclo[13.5.2.1^2,6.0^18,21]tricosa-1(20),2(23),3,5,15(22),16,18(21)-heptaen-9-one], the IC50 was less than 10 nM.
Turning to `CC1OC(=O)NCCCOc2ccc3[nH]nc(c3c2)-c2cncc1c2` (stereo not shown) [Example 107, 7-methyl-8,14-dioxa-4,10,19,20-tetraazatetracyclo[13.5.2.1^2,6.0^18,21]tricosa-1(20),2,4,6(23),15,17,21-heptaen-9-one], the IC50 is less than 10 nM.
Under `O=C1NCCC2(CC2)Oc2ccc3[nH]nc(c3c2)-c2cccc(c2)CO1` [Example 175, 8′,14′-dioxa-10′,19′,20′-triazaspiro[cyclopropane-1,13′-tetracyclo[13.5.2.1^2,6.0^18,21]tricosane]-1′(20′),2′(23′),3′,5′,15′(22′),16′,18′(21′)-heptaen-9′-one] stands less than 10 nM; under `C[C@@H]1CCNC(=O)OCCc2nc(cn2C)-c2n[nH]c3ccc(cc23)O1` [Example 161, (13R)-4,13-dimethyl-8,14-dioxa-4,10,19,20,23-pentaazatetracyclo[13.5.2.1^2,5.0^18,21]tricosa-1(20),2,5(23),15(22),16,18(21)-hexaen-9-one], 10 to 100 nM.
For `CC1CCNC(=O)OCc2cc(F)cc(c2)-c2n[nH]c3ccc(cc23)O1` (single isomer, unassigned) [Example 100, (13R) or (13S)-4-fluoro-13-methyl-8,14-dioxa-10,19,20-triazatetracyclo[13.5.2.1^2,6.0^18,21]tricosa-1(20),2(23),3,5,15(22),16,18(21)-heptaen-9-one], the IC50 is less than 10 nM.
As for `C[C@@H]1CCNC(=O)OCc2cccc(c2)-c2n[nH]c3cc(F)c(cc23)O1` [Example 132, (13R)-16-fluoro-13-methyl-8,14-dioxa-10,19,20-triazatetracyclo[13.5.2.1^2,6.0^18,21]tricosa-1(20),2,4,6(23),15,17,21-heptaen-9-one], the IC50 is less than 10 nM.
For `O=C1NCC(F)(F)COc2ccc3[nH]nc(c3c2)-c2cccc(c2)CO1` [Example 152, 12,12-difluoro-8,14-dioxa-10,19,20-triazatetracyclo[13.5.2.1^2,6.0^18,21]tricosa-1(20),2(23),3,5,15(22),16,18(21)-heptaen-9-one], the IC50 is less than 10 nM.
The same measure for `C[C@@H]1CCNC(=O)OCCC2=NC=C(S2)c2n[nH]c3ccc(cc23)O1` [Example 160, (13R)-13-methyl-8,14-dioxa-23-thia-4,10,19,20-tetraazatetracyclo[13.5.2.1^2,5.0^18,21]tricosa-1(20),2,4,15,17,21-hexaen-9-one]: less than 10 nM; for `N#CC1CCN(c2cc3cc(c2)-c2n[nH]c4ccc(cc24)OCCCNC(=O)OC3)CC1` [Example 33, 1-{9-oxo-8,14-dioxa-10,19,20-triazatetracyclo[13.5.2.1^2,6.0^18,21]tricosa-1(20),2,4,6(23),15,17,21-heptaen-4-yl}piperidine-4-carbonitrile]: less than 10 nM.
As for `CCc1cc2nn1CCOC(=O)NCCCOc1ccc3[nH]nc-2c3c1` [Example 122, 4-ethyl-8,14-dioxa-5,10,19,20,23-pentaazatetracyclo[13.5.2.1^2,5.0^18,21]tricosa-1(20),2(23),3,15,17,21-hexaen-9-one], the IC50 is less than 10 nM.
Under `C[C@@H]1CCNC(=O)OCc2cccc(n2)-c2n[nH]c3ccc(cc23)O1` [Example 114, (13R)-13-methyl-8,14-dioxa-10,19,20,23-tetraazatetracyclo[13.5.2.1^2,6.0^18,21]tricosa-1(20),2,4,6(23),15,17,21-heptaen-9-one] stands less than 10 nM.
For the compound `CC1CCNC(=O)OCc2cc(F)cc(c2)-c2n[nH]c3ccc(cc23)O1` (stereo not shown) [Example 71, 4-fluoro-13-methyl-8,14-dioxa-10,19,20-triazatetracyclo[13.5.2.1^2,6.0^18,21]tricosa-1(20),2,4,6(23),15,17,21-heptaen-9-one], the IC50 is less than 10 nM.
`CC1CNC(=O)OCc2cccc(c2)-c2n[nH]c3ccc(cc23)OC1` (stereo not shown) [Example 86, 12-methyl-8,14-dioxa-10,19,20-triazatetracyclo[13.5.2.1^2,6.0^18,21]tricosa-1(20),2(23),3,5,15(22),16,18(21)-heptaen-9-one]: the half-inhibitory concentration (IC50) was less than 10 nM.
